Measured values published in ChEMBL document CHEMBL1681682, “Synthesis and hydrolytic evaluation of acid-labile imine-linked cytotoxic isatin model systems” (Bioorg Med Chem, 2011).

Assay: Stability of the compound assessed as half life in 1M sodium acetate buffer of pH 4.5 at 37 degC
Format: physicochemical

Row | half-life | Compound
1 | 23 min | COC(=O)[C@H](CCCCNC(=O)Cc1ccc(N=C2C(=O)N(Cc3ccc(OC)cc3)c3c(Br)cc(Br)cc32)cc1)NC(C)=O (mixture of isomers)
2 | 33 min | COC(=O)[C@H](CCCCNC(=O)Cc1cccc(N=C2C(=O)N(Cc3ccc(OC)cc3)c3c(Br)cc(Br)cc32)c1)NC(C)=O (mixture of isomers)
